Like-named read-outs stand apart in the source and are kept apart here.
How the values were obtained:
[1] = tested on: serum TNFα after LPS challenge; experiment: LPS-induced systemic TNFα production in C57BL/6 mice; assay type: in vivo, mouse
Procedure: TNFα induction after intraperitoneal challenge with LPS was performed essentially as described. In brief, mice were pretreated for 2 h with 10 mg/kg ABR-215757 or PBS, after which 3 or 6 μg of LPS was injected intraperitoneally. After an additional 90 min, the animals were sacrificed, and the level of TNFα in blood was determined using commercial TNFα antibodies (eBioscience; http://www.ebioscience.com).

mS100A9 and mRAGE/hFc = target: T1, mS100A9 and mRAGE/hFc (Mus musculus, UniProt P31725); experiment: SPR: inhibition of mouse S100A9 binding to immobilised mouse RAGE
T1 construct: purchased R&D Systems (mRAGE/Fc); S100A9 made in house
T1 sequence (P31725 2-113 limits assumed): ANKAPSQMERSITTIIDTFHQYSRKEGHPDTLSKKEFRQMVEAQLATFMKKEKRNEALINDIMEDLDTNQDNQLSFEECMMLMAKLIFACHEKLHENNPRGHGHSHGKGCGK
Procedure: (§1) The SPR analysis was carried out with the Biacore 3000 system (GE Healthcare). Sensor chips, amine coupling kit, immobilization and running buffers, and regeneration solutions were obtained from GE Healthcare. Working solutions of all reagents used for Biacore analysis were prepared in 0.01 M Hepes, 0.15 M NaCl (pH 7.4) containing 0.005% v/v Surfactant P-20 (HBS-P; GE Healthcare) by buffer exchange on Fast Protein Desalting Micro-Spin Columns from Pierce. ABR-215757 was immobilised onto a CM5 chip through an amino-linker (ABR-224649). […] Activity of ligands after immobilisation was tested by injecting specific antibodies (unpublished data). In some experiments, S100A9 was immobilized either by random amine coupling or with a known orientation (i.e., by sulhydryl group conjugation to the only cysteine in S100A9 at position 3).
(§2) Binding to the various surfaces was performed by injecting the analyte at a flow rate of 30 μl/min in a physiological buffer (HBS-P) containing 1 mM Ca^2+ and 10 μM Zn^2+ as proposed for S100A8/9 by Robinson et al.. A typical analysis cycle consists of: (1) pumping running buffer for 1 min to obtain a stable baseline; (2) injection of sample for an appropriate period of time (association); (3) pumping running buffer for 2.5 min (dissociation); (4) injection of a short pulse (30 s) of 15 μl 10 mM glycine-HCl (pH 2.0) (regeneration); and (5) pumping running buffer for 2 min (stabilisation after regeneration) at a flow rate of 30 μl/min. […] In one experiment, S100A9 was injected into a buffer with a fixed Ca^2+ concentration (1 mM) and Zn^2+ in the range 0–50 μM. In a second experiment, Ca^2+ was varied from 0–2 mM at a fixed Zn^2+ concentration (10 μM). In subsequent analyses, regeneration was carried out under more mild conditions, i.e., by injecting 30 μl of HBS-P containing 3 mM EDTA (HBS-EP; GE Healthcare) for 60 s, to prolong the lifespan of the chip.
(§3) Compounds were also injected over the immobilised surfaces in the absence of S100A9 to exclude, or make possible correction for, any direct binding of compound to the surface.
(§4) Evaluation was carried out using BIAevaluation Software version 3.2 (GE Healthcare). The response at steady-state was obtained by fit of sensorgrams to standard binding models, where appropriate, or calculated as responses at late association or early dissociation phase using the Steady state affinity function in BIAevaluation. Affinity was determined from kinetic analysis (on- and off-rates) or as the apparent affinity after plotting responses versus concentration of analyte in a saturation curve. In the inhibition assay format, the competitor concentration yielding 50% inhibition (IC50) was calculated by fitting data to a one-site competition model in GraphPad Prism.

mS100A9 = target: T2, mS100A9 (Mus musculus, UniProt P31725); experiment: SPR: inhibition of mouse S100A9 binding to immobilised ABR-224649; conditions: Table S1
T2 construct: made in house; host or cells: Escherichia coli (or purified from granulocytes)
T2 sequence (P31725 1-113): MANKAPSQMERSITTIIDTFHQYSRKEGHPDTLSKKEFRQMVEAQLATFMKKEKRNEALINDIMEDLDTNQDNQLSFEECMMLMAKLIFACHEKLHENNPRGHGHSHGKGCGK
Procedure: as §1, §2, §3, §4

[2] = tested on: aEAE development in SLJ/N mice; experiment: acute experimental autoimmune encephalomyelitis (aEAE) in mice; assay type: in vivo, mouse; conditions: Mus musculus, read-out: aEAE Inhibition ED50
Source text: A training set of five quinoline derivatives with structural diversification performed at position 5 of the quinoline ring system was used for the SAR. PCA was used to uncover any relationship between the binding activities of the quinoline derivatives at the S100 proteins and the inhibitory effect of these derivatives in the aEAE model. PLS was then used to model the relationship between the physiochemical descriptors used to characterize the compounds and their biological responses. […] All variables were mean centred and scaled to unit variance.

mS100A8/A9 and mRAGE = target: T3, mS100A8/A9 and mRAGE (Mus musculus, UniProt P31725); experiment: SPR: inhibition of mouse S100A8/A9 binding to mouse RAGE; conditions: Table S1
T3 construct: purchased R&D Systems (mRAGE/Fc); S100A8/A9 made in house
T3 sequence (P31725 2-113 limits assumed): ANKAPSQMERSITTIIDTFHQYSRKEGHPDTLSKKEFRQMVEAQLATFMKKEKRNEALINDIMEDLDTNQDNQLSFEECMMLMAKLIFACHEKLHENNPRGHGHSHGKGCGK
T3 sequence (P27005 2-89 partner limits assumed): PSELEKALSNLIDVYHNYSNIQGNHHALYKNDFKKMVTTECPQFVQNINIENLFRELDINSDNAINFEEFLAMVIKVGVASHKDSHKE
Procedure: as §1, §2, §3, §4

human S100A9 = target: T4, human S100A9 (Homo sapiens, UniProt P06702); experiment: SPR: human S100A9 binding to immobilised ABR-224649 (Q compound), direct binding and displacement
T4 construct: made in house; host or cells: Escherichia coli (or purified from granulocytes)
T4 sequence (P06702 1-114): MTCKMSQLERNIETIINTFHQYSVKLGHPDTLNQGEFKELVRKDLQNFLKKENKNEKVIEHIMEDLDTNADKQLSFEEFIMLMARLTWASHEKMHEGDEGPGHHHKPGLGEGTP
Procedure: as §1, §2, §3, §4

human S100A8 = target: T5, human S100A8 (Homo sapiens, UniProt P05109); experiment: SPR: human S100A8 binding to immobilised Q compound; conditions: 100 nM protein
T5 construct: made in house; host or cells: Escherichia coli or granulocytes
T5 sequence (P05109 1-93): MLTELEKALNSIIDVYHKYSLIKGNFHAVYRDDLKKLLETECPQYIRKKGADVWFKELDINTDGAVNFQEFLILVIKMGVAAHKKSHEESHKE
Procedure: as §1
Binding to the various surfaces was performed by injecting the analyte at a flow rate of 30 μl/min in a physiological buffer (HBS-P) containing 1 mM Ca^2+ and 10 μM Zn^2+ as proposed for S100A8/9 by Robinson et al.. […]

mS100A8/A9 and mLPS-Trap = target: T6, mS100A8/A9 and mLPS-Trap (Mus musculus, UniProt P31725); experiment: SPR: inhibition of mouse S100A8/A9 binding to mLPS-Trap; conditions: Table S1; read-out: S100A8-9 binding IC50, mS100A8/A9 TLR4
T6 sequence (P31725 2-113 limits assumed): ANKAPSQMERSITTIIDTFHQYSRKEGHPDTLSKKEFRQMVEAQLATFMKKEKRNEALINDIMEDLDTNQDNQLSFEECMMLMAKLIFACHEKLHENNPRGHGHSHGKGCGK
Procedure: as §1, §2, §3, §4

human TLR4/MD2 = target: T7, human TLR4/MD2 (Homo sapiens, UniProt O00206+Q9Y6Y9); experiment: SPR: direct binding to immobilised human TLR4/MD2; conditions: unpublished data
T7 construct: purchased R&D Systems
T7 sequence (O00206 24-631 limits assumed): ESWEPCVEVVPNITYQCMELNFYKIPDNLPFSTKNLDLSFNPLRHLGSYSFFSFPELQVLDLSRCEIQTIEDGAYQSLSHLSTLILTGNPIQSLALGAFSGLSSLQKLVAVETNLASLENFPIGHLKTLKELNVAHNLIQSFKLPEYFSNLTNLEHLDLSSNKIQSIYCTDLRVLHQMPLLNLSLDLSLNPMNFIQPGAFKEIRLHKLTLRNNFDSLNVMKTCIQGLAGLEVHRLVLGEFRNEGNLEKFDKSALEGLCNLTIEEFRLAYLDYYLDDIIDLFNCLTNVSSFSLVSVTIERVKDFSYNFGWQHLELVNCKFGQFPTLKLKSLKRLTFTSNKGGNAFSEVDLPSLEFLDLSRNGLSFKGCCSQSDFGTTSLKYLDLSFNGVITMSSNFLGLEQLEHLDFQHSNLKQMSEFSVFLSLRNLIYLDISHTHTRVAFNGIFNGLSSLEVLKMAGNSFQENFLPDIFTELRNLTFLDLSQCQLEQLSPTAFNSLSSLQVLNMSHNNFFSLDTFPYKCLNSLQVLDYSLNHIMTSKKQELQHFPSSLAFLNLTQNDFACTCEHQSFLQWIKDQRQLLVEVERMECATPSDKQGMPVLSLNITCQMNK
T7 sequence (Q9Y6Y9 19-160): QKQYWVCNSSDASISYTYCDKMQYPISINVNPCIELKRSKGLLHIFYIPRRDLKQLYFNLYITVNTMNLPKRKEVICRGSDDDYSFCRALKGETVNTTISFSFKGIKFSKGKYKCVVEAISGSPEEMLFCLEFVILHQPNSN
Procedure: as §1, with “3). […]” for “3).”
as §4, with “In the inhibition assay format, the competitor concentration yielding 50% inhibition (IC50) was calculated by fitting data to a one-site competition model in GraphPad Prism.” left out

human RAGE = target: T8, human RAGE (Homo sapiens, UniProt Q15109); experiment: SPR: direct binding to immobilised human RAGE; conditions: unpublished data
T8 construct: purchased R&D Systems
T8 sequence (Q15109 23-342 limits assumed): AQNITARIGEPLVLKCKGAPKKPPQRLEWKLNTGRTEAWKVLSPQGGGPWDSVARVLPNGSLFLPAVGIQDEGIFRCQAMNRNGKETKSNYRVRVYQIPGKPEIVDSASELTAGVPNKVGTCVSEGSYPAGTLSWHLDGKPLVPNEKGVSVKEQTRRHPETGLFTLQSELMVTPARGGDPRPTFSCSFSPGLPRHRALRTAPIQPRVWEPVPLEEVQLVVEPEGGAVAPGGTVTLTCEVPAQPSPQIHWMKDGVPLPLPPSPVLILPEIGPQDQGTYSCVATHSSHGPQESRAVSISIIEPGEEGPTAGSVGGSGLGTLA
Procedure: as §1, with “3). […]” for “3).”
as §4, with “In the inhibition assay format, the competitor concentration yielding 50% inhibition (IC50) was calculated by fitting data to a one-site competition model in GraphPad Prism.” left out

mS100A9 and mLPS-Trap = target: T9, mS100A9 and mLPS-Trap (Mus musculus, UniProt P31725); experiment: SPR: inhibition of mouse S100A9 binding to immobilised mouse TLR4/MD2 fusion protein (mLPS-Trap)
T9 sequence (P31725 2-113 limits assumed): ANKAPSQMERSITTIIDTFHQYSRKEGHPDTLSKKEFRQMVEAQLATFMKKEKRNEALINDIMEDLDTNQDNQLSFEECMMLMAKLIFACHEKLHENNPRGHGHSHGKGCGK
Procedure: as §1, §2, §3, §4

[3] = target: T10, human S100A9 binding to human TLR4/MD2 (Homo sapiens, UniProt P06702); experiment: SPR: inhibition of human S100A9 binding to immobilised human TLR4/MD2
T10 construct: purchased R&D Systems (TLR4/MD-2 complex); S100A9 made in house
T10 sequence (P06702 1-114): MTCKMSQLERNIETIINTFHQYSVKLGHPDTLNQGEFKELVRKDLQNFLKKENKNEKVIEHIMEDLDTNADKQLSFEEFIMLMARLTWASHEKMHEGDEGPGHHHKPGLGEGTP
Procedure: as §1, §2, §3, §4

[4] = target: T11, human S100A9 binding to human RAGE (Homo sapiens, UniProt P06702); experiment: SPR: inhibition of human S100A9 binding to immobilised human RAGE
T11 construct: purchased R&D Systems (RAGE/Fc); S100A9 made in house
T11 sequence (P06702 1-114): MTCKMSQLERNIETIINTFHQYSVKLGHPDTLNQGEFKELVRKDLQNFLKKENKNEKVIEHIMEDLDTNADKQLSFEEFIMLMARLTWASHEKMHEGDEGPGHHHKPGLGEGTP
Procedure: as §1, §2, §3, §4

hS100A9 = target: T12, hS100A9 (Homo sapiens, UniProt P06702); experiment: SPR: analytes injected over immobilised hS100A9; assay type: binding
T12 construct: made in house; host or cells: Escherichia coli (or purified from granulocytes)
T12 sequence (P06702 1-114): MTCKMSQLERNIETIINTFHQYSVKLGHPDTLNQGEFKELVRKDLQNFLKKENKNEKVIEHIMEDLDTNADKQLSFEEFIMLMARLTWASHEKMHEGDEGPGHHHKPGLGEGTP
Procedure: as §1
(B) Left: 100 nM TLR4/MD2 or MD2 injected over amino-coupled hS100A9. […] Fab 43/8 was injected at 50–200 nM to verify activity of immobilized hS100A9 (right). […] (482 KB PDF) Click here for additional data file.

Question: With `CCc1cccc2c1c(O)c(C(=O)N(CC)c1ccccc1)c(=O)n2C` [ABR-215757] as the compound, how does the “TNFα production after LPS challenge” value ([1]; 3 μg LPS i.p., treatment 2 h before (ABR-215757 10 mg/kg)) read?
Answer: Its value is “significantly inhibited”.

Question: And the “TNFα production after LPS challenge” value ([1]; 6 μg LPS i.p., 10 mg/kg 2 h before)?
Answer: The value was “significantly inhibited”.

Question: And the “competition of mouse S100A9 interaction with solid-phase mouse RAGE” value (mS100A9 and mRAGE/hFc; 100 nM mouse S100A9)?
Answer: Its value is “competed”.

Question: And the IC50 (mS100A9 and mRAGE/hFc; Table S1)?
Answer: The IC50 was 311 µM.

Question: What about the IC50 (mS100A9) of the same compound?
Answer: The IC50 was 940 µM.

Question: And the ED50 [2]?
Answer: Its ED50 is 0.04 mg/kg.

Question: And the IC50 (mS100A8/A9 and mRAGE)?
Answer: The IC50 was 334 µM.

Question: And the “binding of recombinant S100A9 to Q compound coupled to solid phase” value (human S100A9)?
Answer: Its value is “bound strongly”.

Question: And the IC50 (human S100A9; 100 nM S100A9, competitor 7.81–1,000 μM, one-site competition model, 1 mM Ca2+ and 10 μM Zn2+)?
Answer: Its IC50 is 37 µM.

Question: And the “binding of S100A8 to immobilised Q compound” value (human S100A8)?
Answer: Its value is “close to baseline levels”.

Question: What about the IC50 (mS100A8/A9 and mLPS-Trap) of the same compound?
Answer: Its IC50 is 334 µM.

Question: What about the “direct binding to hTLR4/MD2” value (human TLR4/MD2) of the same compound?
Answer: The value was “negligible”.

Question: And the “direct binding to RAGE” value (human RAGE)?
Answer: The value was “not observed”.

Question: What about the “competition of mouse S100A9 interaction with solid-phase mouse TLR4/MD2” value (mS100A9 and mLPS-Trap; 100 nM mouse S100A9) of the same compound?
Answer: Its value is “competed”.

Question: What about the IC50 (mS100A9 and mLPS-Trap; Table S1) of the same compound?
Answer: Its IC50 is 698 µM.

Question: And the IC50 ([3]; 100 nM S100A9, competitor 7.81 to 1,000 μM, single experiment Figure 3C, read-out: IC50, inhibition of S100A9 binding to immobilised hTLR4/MD2)?
Answer: Its IC50 is 23 µM.

Question: And the IC50 ([3]; Table S1, read-out: S100A9 binding IC50, hS100A9 TLR4)?
Answer: Its IC50 is 59.7 µM.

Question: What about the IC50 ([4]; S100A9 binding IC50, hS100A9 RAGE, Table S1) of the same compound?
Answer: The IC50 was 60.5 µM.

Question: And the IC50 ([4]; competitor concentration yielding 50% inhibition of S100A9 binding to RAGE surface, 100 nM S100A9, competitor 7.81–1,000 μM, single experiment Figure 2C)?
Answer: Its IC50 is 26 µM.

Question: How did the “binding to immobilised S100A9” value (hS100A9) turn out when rhMD-2: recombinant human MD-2 was run?
Answer: The value was “did not”.

Question: And the “displacement of S100A9 binding to immobilised hTLR4/MD2” value ([3]; 200 and 400 nM, unpublished data)?
Answer: The value was “No displacement”.

Source: paper PMC2671563 (PLoS Biology, 2009)
